Laboratory results: PubChem BioAssay (NCI)
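Five concentrations, 48 hours, 96-well plates. TGI: concentration producing complete growth inhibition.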

What was measured:
Test in all cases: NCI anticancer screen, dose series, 48 h
[1] = system: NCI-H23 lung
[2] = system: SK-MEL-28 melanoma
[3] = system: TK-10 renal
[4] = system: PC-3 prostate
[5] = system: HL-60(TB) leukemia
[6] = system: SF-268 CNS
[7] = system: MDA-MB-231 breast
[8] = system: SF-539 CNS
[9] = system: OVCAR-4 ovarian
[10] = system: ACHN renal
[11] = system: SF-295 CNS
[12] = system: UACC-62 melanoma
[13] = system: OVCAR-8 ovarian
[14] = system: SNB-19 CNS
[15] = system: OVCAR-5 ovarian
[16] = system: A498 renal
[17] = system: SK-OV-3 ovarian
[18] = system: NCI-H522 lung
[19] = system: HCC-2998 colon
[20] = system: K-562 leukemia
[21] = system: SN12C renal
[22] = system: MALME-3M melanoma
[23] = system: SW-620 colon
[24] = system: CAKI-1 renal
[25] = system: RXF 393 renal
[26] = system: HCT-116 colon
[27] = system: HOP-92 NSCLC
[28] = system: MDA-N
[29] = system: SK-MEL-5 melanoma
[30] = system: DU-145 prostate
[31] = system: IGROV1 ovarian
[32] = system: HS 578T breast
[33] = system: U251 CNS
[34] = system: COLO 205 colon
[35] = system: NCI-H460 lung
[36] = system: 786-0 renal
[37] = system: HT29 colon
[38] = system: UO-31 renal
[39] = system: BT-549 breast
[40] = system: A549 NSCLC
[41] = system: UACC-257 melanoma
[42] = system: EKVX NSCLC
[43] = system: M14 melanoma
[44] = system: HOP-62 NSCLC
[45] = system: HCT-15 colon
[46] = system: SR leukemia
[47] = system: SK-MEL-2 melanoma
[48] = system: MCF7 breast
[49] = system: NCI/ADR-RES ovarian
[50] = system: NCI-H226 lung
[51] = system: LOX IMVI melanoma
[52] = system: RPMI-8226 leukemia
[53] = system: OVCAR-3 ovarian
[54] = system: SNB-75 CNS
[55] = system: MDA-MB-435
[56] = system: CCRF-CEM leukemia
[57] = system: MOLT-4 leukemia
[58] = system: KM12 colon

COc1ccc(NC(=S)Nc2ccccc2)cc1
TGI [1]: > 100 µM
TGI [2]: > 100 µM
TGI [3]: > 100 µM
TGI [4]: > 100 µM
TGI [5]: > 100 µM
TGI [6]: > 100 µM
TGI [7]: > 100 µM
TGI [8]: > 100 µM
TGI [9]: > 100 µM
TGI [10]: > 100 µM
TGI [11]: > 100 µM
TGI [12]: > 100 µM
TGI [13]: > 100 µM
TGI [14]: > 100 µM
TGI [15]: > 100 µM
TGI [16]: > 100 µM
TGI [17]: > 100 µM
TGI [18]: > 100 µM
TGI [19]: > 100 µM
TGI [20]: > 100 µM
TGI [21]: > 100 µM
TGI [22]: > 100 µM
TGI [23]: > 100 µM
TGI [24]: > 100 µM
TGI [25]: > 100 µM
TGI [26]: > 100 µM
TGI [27]: > 100 µM
TGI [28]: > 100 µM
TGI [29]: > 100 µM
TGI [30]: > 100 µM
TGI [31]: > 100 µM
TGI [32]: > 100 µM
TGI [33]: > 100 µM
TGI [34]: > 100 µM
TGI [35]: > 100 µM
TGI [36]: > 100 µM
TGI [37]: > 100 µM
TGI [38]: > 100 µM
TGI [39]: > 100 µM
TGI [40]: > 100 µM
TGI [41]: > 100 µM
TGI [42]: > 100 µM
TGI [43]: > 100 µM
TGI [44]: > 100 µM
TGI [45]: > 100 µM
TGI [46]: > 100 µM
TGI [47]: > 100 µM
TGI [48]: > 100 µM
TGI [49]: > 100 µM
TGI [50]: > 100 µM
TGI [51]: > 100 µM
TGI [52]: > 100 µM
TGI [53]: > 100 µM
TGI [54]: > 100 µM
TGI [55]: > 100 µM

O=[N+]([O-])c1ccc2sc(C=Nc3ccc(O)cc3)cc2c1
TGI [1]: > 100 µM
TGI [2]: > 100 µM
TGI [3]: > 100 µM
TGI [4]: > 100 µM
TGI [5]: 53.2 µM
TGI [6]: > 100 µM
TGI [7]: 44.5 µM
TGI [8]: 55.4 µM
TGI [10]: > 100 µM
TGI [11]: > 100 µM
TGI [12]: 61.9 µM
TGI [13]: > 100 µM
TGI [14]: > 100 µM
TGI [15]: > 100 µM
TGI [16]: > 100 µM
TGI [17]: > 100 µM
TGI [18]: > 100 µM
TGI [19]: 56.6 µM
TGI [20]: 43 µM
TGI [21]: > 100 µM
TGI [22]: > 100 µM
TGI [23]: 43.9 µM
TGI [24]: 43.5 µM
TGI [25]: 57.9 µM
TGI [26]: > 100 µM
TGI [27]: > 100 µM
TGI [28]: 80.6 µM
TGI [29]: 68 µM
TGI [30]: > 100 µM
TGI [31]: > 100 µM
TGI [32]: 66.4 µM
TGI [33]: 42.7 µM
TGI [34]: > 100 µM
TGI [35]: > 100 µM
TGI [36]: 40.4 µM
TGI [56]: 59.6 µM
TGI [57]: 44.6 µM
TGI [37]: > 100 µM
TGI [58]: > 100 µM
TGI [38]: > 100 µM
TGI [39]: > 100 µM
TGI [40]: > 100 µM
TGI [41]: 56.2 µM
TGI [42]: > 100 µM
TGI [43]: > 100 µM
TGI [44]: > 100 µM
TGI [45]: > 100 µM
TGI [46]: 97 µM
TGI [47]: 59 µM
TGI [48]: 47.7 µM
TGI [49]: > 100 µM
TGI [51]: 51.2 µM
TGI [52]: 79.7 µM
TGI [53]: 28.6 µM
TGI [54]: 49.9 µM
TGI [55]: 34.3 µM
